Experimental data reported in US5500414A, “Derivatives of peptides usable as inhibitors of bacterial collagenases” (Commissariat a l'Energie Atomique, priority 1991, dated 1996).

Target: bacterial collagenase
Assay: Inhibition of bacterial collagenase; Ki from dissociation and association rate constants, substrate Fa--Leu--Gly--Pro--Ala
Assay type: biochemical, Empedobacterium collagenolyticum
Details: ratio Koff/Kon, slow binding inhibitors, pH7 Tricine buffer
Experimental: The activities of the different compounds A, B, C and D were determined on the one hand by measuring the association rate constant of the inhibitors to collagenase by the method of Morrison, J. & Walsh, C. T., 1987, Adv., Enzymol. Relat. Aeras Mol. Biol. applied in the case where the inhibitors are of the slow binding type and on the other hand by measuring the dissociation rate constants of the inhibitors of the enzyme--inhibitor complex. In this case, after allowing the collagenase to preincubate in the presence of an inhibitor excess, the thus formed enzyme--inhibitor complex is purified by gel filtration. The solution containing the purified complex is then diluted by a factor of 10,000 in a reference buffer and then, as a function of time, measurement takes place of the return of the activity of the collagenase, which represents the dissociation of the inhibitor of the enzyme--inhibitor complex.
The inhibition constants given in the table correspond to the ratio of the dissociation rate constants Koff and the association rate constants Kon measured in this way. In all the activity measurement experiments we used as the synthetic substrate Fa--Leu--Gly--Pro--Ala in a pH7 Tricine buffer. The source of the bacterial collagenase used was the strain Empedobacterium collagenolyticum.

Row | Substance | Ki [nM]
1 | Z,D,L-Phe*PCH2DL-Ala°ProNle°, 2Na^+ [F] | 2350
2 | Z--D,LPhe*--PO2 CH2 --CH2 --CO--Pro--Nle*,2Na^+ [Compound A] | 12
3 | Z--Gly--Pro--Phe*--PO(OH)--CH2 --CH2 --CO--Pro--Nle*2Na^+ | 0.4
4 | Z--Pro--Phe*--PO(OH)--CH2 --CH2 --CO--Pro--Nle* 2Na^+ [Compound B] | 80
